These results are taken from ChEMBL document CHEMBL1130914, “Thromboxane modulating agents. 4. Design and synthesis of 3-(2-[[(4-chlorophenyl)sulfonyl]-amino]ethyl)benzenepropanoic acid derivatives as potent thromboxane receptor antagonists” (Bioorg Med Chem Lett, 1998).

One assay concerns Thromboxane A2 receptor (Canis lupus familiaris). The assay can be described thus: Tested for peroral dose required to cause complete blockade of the response to the thromboxane receptor agonist U-46,619 (1 uM) for 48 hours.
Details: not given
Turning to `O=C(O)CCc1cc(CCNS(=O)(=O)c2ccc(Cl)cc2)cc(Cc2ccc(F)cc2)c1`, the Activity was determined as 1 mg/kg.

Another assay has the same test system. Put plainly: Tested for the peroral dose required to maintain complete thromboxane receptor antagonism for > 12 hours.
Details: not given
As for `O=C(O)CCc1cc(CCNS(=O)(=O)c2ccc(Cl)cc2)cc(Cc2ccc(F)cc2)c1`, the Activity came out at 0.1 mg/kg.

For another assay, the target named is T1, Thromboxane-A synthase (Homo sapiens, UniProt P24557).
T1 sequence (P24557 whole entry): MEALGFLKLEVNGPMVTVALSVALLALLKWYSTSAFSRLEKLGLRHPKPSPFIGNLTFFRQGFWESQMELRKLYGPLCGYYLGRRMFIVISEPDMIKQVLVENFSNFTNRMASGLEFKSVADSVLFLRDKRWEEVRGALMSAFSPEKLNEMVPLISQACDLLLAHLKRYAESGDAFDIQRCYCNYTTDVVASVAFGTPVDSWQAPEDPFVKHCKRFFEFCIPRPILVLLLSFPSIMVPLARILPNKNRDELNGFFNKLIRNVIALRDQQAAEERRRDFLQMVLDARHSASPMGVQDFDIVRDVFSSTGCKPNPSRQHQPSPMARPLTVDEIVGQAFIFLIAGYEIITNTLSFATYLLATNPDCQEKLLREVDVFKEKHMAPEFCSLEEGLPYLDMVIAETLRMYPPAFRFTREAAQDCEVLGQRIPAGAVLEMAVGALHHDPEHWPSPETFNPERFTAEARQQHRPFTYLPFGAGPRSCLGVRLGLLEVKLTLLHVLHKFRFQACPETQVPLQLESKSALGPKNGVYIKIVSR
The assay can be described thus: Inhibitory activity against Thromboxane A2 synthase from human platelet microsomes.
Details: not given
On to `O=C(O)CCc1cc(CCNS(=O)(=O)c2ccc(Cl)cc2)cc(Cc2ccncc2)c1`, for which 47 nM corresponded to half-maximal inhibition (IC50).

A further assay has as its target T2, Thromboxane A2 receptor (Rattus norvegicus, UniProt P34978).
T2 sequence (P34978 whole entry): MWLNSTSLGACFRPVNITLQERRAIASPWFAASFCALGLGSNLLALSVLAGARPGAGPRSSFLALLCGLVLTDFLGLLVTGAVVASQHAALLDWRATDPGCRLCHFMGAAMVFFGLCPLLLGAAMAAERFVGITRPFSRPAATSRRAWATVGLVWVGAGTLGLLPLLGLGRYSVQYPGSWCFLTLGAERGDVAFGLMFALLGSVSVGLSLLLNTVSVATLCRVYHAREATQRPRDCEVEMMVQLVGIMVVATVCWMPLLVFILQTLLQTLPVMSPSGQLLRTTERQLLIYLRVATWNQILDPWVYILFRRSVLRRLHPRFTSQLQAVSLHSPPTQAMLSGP
The assay can be described thus: In vitro Thromboxane A2 (TXA2) receptor antagonism was tested by its ability to inhibit the contraction of rat aorta induced by the stable thromboxane agonist U-46,619. Type of assay: functional, tissue-based. The settings on record: read-out: pA2 (converted).
As to `COc1ccccc1Cc1cc(CCNS(=O)(=O)c2ccc(Cl)cc2)cc(CCC(=O)O)c1`, the Kb was 0.0631 nM. `CS(=O)(=O)c1ccc(C(=O)c2cc(CCNS(=O)(=O)c3ccc(Cl)cc3)cc(CCC(=O)O)c2)cc1`: the Kb was 0.316 nM. Still for that read-out and setting: under `O=C(O)CCc1cccc(CCNS(=O)(=O)c2ccc(Cl)cc2)c1` stands 2 nM; under `O=C(O)CCc1cc(CCNS(=O)(=O)c2ccc(Cl)cc2)cc(Cc2cccnc2)c1`, 0.398 nM. Still for that read-out and setting: under `COc1ccc(C(=O)c2cc(CCNS(=O)(=O)c3ccc(Cl)cc3)cc(CCC(=O)O)c2)cc1` stands 0.0251 nM; under `O=C(O)CCc1cc(CCNS(=O)(=O)c2ccc(Cl)cc2)cc(Cc2ccccc2)c1`, 0.0158 nM; under `CS(=O)(=O)c1ccc(Cc2cc(CCNS(=O)(=O)c3ccc(Cl)cc3)cc(CCC(=O)O)c2)cc1`, 0.0631 nM. Take `N#Cc1ccc(C(=O)c2cc(CCNS(=O)(=O)c3ccc(Cl)cc3)cc(CCC(=O)O)c2)cc1`: the Kb is 0.0398 nM.

Take `COc1ccc(Cc2cc(CCNS(=O)(=O)c3ccc(Cl)cc3)cc(CCC(=O)O)c2)cc1`: the Kb was 0.00398 nM. Regarding `O=C(O)CCc1cc(CCNS(=O)(=O)c2ccc(Cl)cc2)cc(C(O)c2ccc(F)cc2)c1` (stereo not drawn), the Kb was 0.2 nM. The same measure, in the same setting: to `O=C(O)CCc1cc(CCNS(=O)(=O)c2ccc(Cl)cc2)cc(Cc2ccncc2)c1` belongs 0.00251 nM; to `O=C(O)CCc1cc(CCNS(=O)(=O)c2ccc(Cl)cc2)cc(Cc2cccc(F)c2)c1`, 0.0794 nM.

For the molecule `CC(c1ccc(F)cc1)c1cc(CCNS(=O)(=O)c2ccc(Cl)cc2)cc(CCC(=O)O)c1` (stereo not drawn), the Kb was 0.00398 nM.

`O=C(O)CCc1cc(CCNS(=O)(=O)c2ccc(Cl)cc2)cc(C(=O)c2ccc(F)cc2)c1`: the Kb was 0.1 nM. Take `O=C(O)CCc1cc(CCNS(=O)(=O)c2ccc(Cl)cc2)cc(Cc2ccc(F)cc2)c1`: the Kb is 0.0251 nM.
